Reference: patent US8129355B2, “Ketone ligands for modulating the expression of exogenous genes via an ecdysone receptor complex” (priority 2002, dated 2012)
Read-outs that look alike come from different tables or passages of the source.

Molecular target: T1, Bombyx mori EcR (VP16 fusion, switch construct CVBE) with 6XEcRE LacZ reporter (Bombyx mori, UniProt P49881)
T1 construct: expressed in transfected cells; host or cells: Human 293 kidney (HEK-293) cells, retrovirally infected, clone Z3
T1 sequence (P49881 86-606 limits assumed): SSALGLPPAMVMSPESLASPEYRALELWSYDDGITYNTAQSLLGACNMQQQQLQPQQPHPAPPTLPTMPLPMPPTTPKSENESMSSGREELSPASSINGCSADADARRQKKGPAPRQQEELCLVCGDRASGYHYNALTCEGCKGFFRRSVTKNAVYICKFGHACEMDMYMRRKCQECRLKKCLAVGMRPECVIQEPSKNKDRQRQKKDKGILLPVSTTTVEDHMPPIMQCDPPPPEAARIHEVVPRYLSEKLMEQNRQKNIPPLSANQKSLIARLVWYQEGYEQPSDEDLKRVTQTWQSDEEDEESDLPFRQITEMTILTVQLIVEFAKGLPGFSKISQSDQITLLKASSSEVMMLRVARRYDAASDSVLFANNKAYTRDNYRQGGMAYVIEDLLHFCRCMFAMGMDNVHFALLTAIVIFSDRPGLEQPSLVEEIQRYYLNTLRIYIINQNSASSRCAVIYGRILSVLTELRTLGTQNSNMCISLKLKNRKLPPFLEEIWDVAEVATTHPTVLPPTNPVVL
T1 sequence (P19793 1-462 partner): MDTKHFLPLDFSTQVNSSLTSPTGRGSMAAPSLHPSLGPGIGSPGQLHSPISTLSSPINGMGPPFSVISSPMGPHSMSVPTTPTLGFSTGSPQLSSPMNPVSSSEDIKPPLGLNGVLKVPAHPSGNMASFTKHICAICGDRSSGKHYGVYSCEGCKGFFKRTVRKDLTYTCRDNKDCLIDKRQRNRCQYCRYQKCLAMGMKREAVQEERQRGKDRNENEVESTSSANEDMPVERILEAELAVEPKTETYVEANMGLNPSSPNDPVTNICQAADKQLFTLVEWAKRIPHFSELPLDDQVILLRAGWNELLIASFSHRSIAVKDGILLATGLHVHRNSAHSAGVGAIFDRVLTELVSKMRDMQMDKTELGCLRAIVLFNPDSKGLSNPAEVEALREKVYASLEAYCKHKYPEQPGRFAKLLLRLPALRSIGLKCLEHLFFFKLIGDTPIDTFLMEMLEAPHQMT
Assay: Z3 assay: β-galactosidase (LacZ) reporter gene fold induction in stably transformed human 293 kidney cells (clone Z3)
Format: cell-based
Procedure, shortened: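 β-Galactosidase read 48 h after dosing by bioluminescent assay; ligand added at 33 μM with DMSO held at 0.03%. The cells are stable 293 clone Z3, expressing a CMV-driven VP16 fusion of Bombyx mori EcR residues 26-546 plus six EcRE copies upstream of lacZ.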

[1] = maximum fold induction at any concentration relative to that of GS-E ligand
[2] = read-out: Fold Induction Average, Z3 Assay (33 μM)
[3] = read-out: Z3 LC50; average; dose response, three-parameter logistic model
[4] = average; dose response, three-parameter logistic model; read-out: Z3 LC50
[5] = single dose 33 μM; ligand treated / DMSO treated cells; read-out: Fold Induction Average, Z3 Assay (33 μM)
[6] = single dose 33 μM; ligand treated / DMSO treated cells

Row | Compound | Z3 Rel Max FI [1] | fold induction at 33 µM [2] | CC50 [3] [µM] | CC50 [4] [µM] | fold induction at 33 µM [5] | Fold Induction Average, Z3 Assay (33 μM) [6]
1 | CCC(CC)(NC(=O)c1cccc(OC)c1C)C(=O)c1ccc(F)c(C)c1 [Example 50] | 0.07 | 178 | 10.4 | – | – | –
2 | CCc1c(OC)cccc1C(=O)NC1(C(=O)c2cc(C)cc(C)c2)CCCCC1 [Example 143] | 0.85 | – | – | 1.81 | – | –
3 | COc1cccc(C(=O)NC2(C(=O)c3ccc(F)c(C)c3)CCCCC2)c1C [Example 18] | 0.67 | 657 | 3.41 | – | – | –
4 | COc1cccc(C(=O)NC2(C(=O)c3cc(C)cc(C)c3)CCC2)c1C [Example 14] | 0.69 | – | – | 8.52 | 945 | –
5 | COc1ccccc1C(=O)C1(NC(=O)c2cccc(OC)c2C)CCCCCC1 [Example 70] | 0.78 | – | – | 1.94 | – | 831
6 | COc1cccc(C(=O)NC2(C(=O)c3ccccc3)CCCC2)c1 [Example 141] | 0.00 | – | – | > 33 | – | –
7 | COc1cccc(C(=O)NC2(C(=O)c3cc(C)cc(C)c3)CCCC2)c1C [Example 10] | 0.85 | – | – | 1.87 | 464 | –
8 | CCC(CC)(NC(=O)c1cccc(OC)c1C)C(=O)c1ccccc1 [Example 78] | 0.06 | – | – | > 33 | – | –
9 | COc1cccc(C(=O)NC2(C(=O)c3cc(C)cc(C)c3)CCSCC2)c1C [Example 28] | 0.98 | – | – | 1.6 | 1220 | –
10 | COc1cc(C(=O)C2(NC(=O)c3cccc(OC)c3C)CCCCC2)cc(OC)c1C [Example 66] | 0.17 | 341 | 3.33 | – | – | –
11 | COc1cccc(C(=O)C(C)(C)NC(=O)c2ccccc2OC)c1 [Example 117] | – | – | – | – | – | 1
12 | CCOC(=O)C(=O)N1CCCC(NC(=O)c2cccc(OC)c2C)(C(=O)c2cc(C)cc(C)c2)C1 (racemic) [Example 154] | – | – | – | – | – | 7
13 | CCC(CC)(NC(=O)c1cccc(OC)c1C)C(=O)c1cc(C)cc(C)c1 [Example 51] | 0.61 | – | – | 4.53 | 817 | –
14 | COc1cccc(C(=O)NC2(C(=O)c3cc(F)c(F)c(OC)c3)CCCC2)c1C [Example 67] | 0.54 | 666 | 4.17 | – | – | –
15 | CCC(CC)(NC(=O)c1cccc(OC)c1C)C(=O)c1ccc(F)cc1 [Example 38] | 0.04 | – | – | 13.7 | 51 | –
16 | COc1cccc(C(=O)NC2(C(=O)c3ccc(C)cc3)CCCCC2)c1C [Example 15] | 0.70 | 921 | 3.01 | – | – | –
17 | COc1cccc(C(=O)NC2(C(=O)c3cc(C)cc(C)c3)CCN(C(C)=O)CC2)c1C [Example 149] | – | – | – | – | 2 | –
18 | COC(=O)CN1CCCC(NC(=O)c2cccc(OC)c2C)(C(=O)c2cc(C)cc(C)c2)C1 (racemic) [Example 156] | 0.03 | – | – | ~20 | – | 78
19 | CCCCC(=O)C1(NC(=O)c2cccc(OC)c2C)CCCCC1 [Example 120] | 0.36 | 791 | 6.33 | – | – | –
20 | COc1ccccc1C(=O)C1(NC(=O)c2cccc(OC)c2C)CCCC1 [Example 40] | 0.70 | 951 | 5.16 | – | – | –
21 | CCc1c(OC)cccc1C(=O)NC1(C(=O)c2cc(C)cc(C)c2)CCCC1 [Example 144] | 0.86 | – | – | 2.15 | – | –
22 | COc1cccc(C(=O)NC(C)(C(=O)c2ccccc2C)C(C)C)c1C (stereo not drawn) [Example 63] | 0.26 | – | – | 17.9 | 453 | –

Row | Compound | Z3 Rel Max FI [1] | fold induction at 33 µM [2] | CC50 [3] [µM] | CC50 [4] [µM] | fold induction at 33 µM [5] | Fold Induction Average, Z3 Assay (33 μM) [6]
23 | COc1cccc(C(=O)NC(C)(Cc2ccccc2)C(=O)c2cc(C)cc(C)c2)c1C (stereo not drawn) [Example 12] | 0.09 | 76 | 10 | – | – | –
24 | COc1cccc(C(=O)NC2(C(=O)c3cccc(C)c3)CCSCC2)c1C [Example 26] | 0.60 | 751 | ~15 | – | – | –
25 | COc1cccc(C(=O)NC2(C(=O)c3cc(C)cc(C)c3)CCC3(CC2)OCCO3)c1C [Example 29] | 0.06 | 116 | ~15 | – | – | –
26 | CCC(CC)(NC(=O)c1cccc(OC)c1C)C(=O)c1cccc(OC)c1 [Example 49] | 0.01 | 182 | > 33 | – | – | –
27 | COc1cccc(C(=O)NC2(C(=O)c3ccc(F)cc3)CCCCC2)c1C [Example 60] | 0.61 | 817 | ~6 | – | – | –
28 | COc1cccc(C(=O)NC2(C(=O)c3ccccc3C)CCCCC2)c1C [Example 44] | 0.23 | 94 | 16.8 | – | – | –
29 | COc1cccc(C(=O)C(C)(CC(C)C)NC(=O)c2cccc(OC)c2C)c1 (stereo not drawn) [Example 53] | 0.11 | 112 | 23.7 | – | – | –
30 | CCC(CC)(NC(=O)c1cccc(OC)c1C)C(=O)c1cccc(C)c1 [Example 48] | 0.25 | – | – | 6.61 | 356 | –
31 | COc1cccc(C(=O)NC2(C(=O)c3cc(C)cc(C)c3)CC2)c1C [Example 13] | 0.22 | 293 | 20.4 | – | – | –
32 | COc1ccccc1C(=O)C(C)(C)NC(=O)c1cccc(OC)c1C [Example 74] | – | – | – | – | – | 18
33 | COc1cccc(C(=O)NC(C)(CC(C)C)C(=O)c2cccc(C)c2)c1C (stereo not drawn) [Example 52] | 0.24 | 239 | 6.09 | – | – | –
34 | COc1cccc(C(=O)NC(C)(C)C(=O)c2ccccc2)c1C [Example 76] | 0.00 | – | – | > 33 | – | 1
35 | COc1ccccc1C(=O)C(C)(NC(=O)c1cccc(OC)c1C)C(C)C (stereo not drawn) [Example 30] | 0.20 | 485 | ~15 | – | – | –
36 | COc1cccc(C(=O)NC(C)(C(=O)c2cc(C)cc(C)c2)C(C)C)c1C (stereo not drawn) [Example 20] | 0.75 | 573 | 2.06 | – | – | –
37 | COc1cccc(C(=O)NC(C)(CC(C)C)C(=O)c2cc(C)cc(C)c2)c1C (stereo not drawn) [Example 55] | 0.72 | 309 | 3.4 | – | – | –
38 | COc1cccc(C(=O)NC2(C(=O)c3ccccc3)CCCCC2)c1C [Example 69] | 0.56 | 1030 | 7.52 | – | – | –
39 | CCC(CC)(NC(=O)c1cccc(OC)c1C)C(=O)c1ccc(C)cc1 [Example 77] | 0.04 | – | – | 32.2 | – | –
40 | CCc1c(OC)cccc1C(=O)NC1(C(=O)c2ccccc2)CCCC1 [Example 21] | 0.33 | 305 | ~15 | – | – | –
41 | COc1cccc(C(=O)NC2(C(=O)c3cccc(C)c3)CCCCC2)c1C [Example 7] | 0.78 | 811 | 3.51 | – | – | –
42 | CCC(CC)(NC(=O)c1cccc(OC)c1C)C(=O)c1ccccc1OC [Example 37] | 0.29 | 327 | 6.19 | – | – | –
43 | CCNC(=O)N1CCC(NC(=O)c2cccc(OC)c2C)(C(=O)c2cc(C)cc(C)c2)CC1 [Example 157] | – | – | – | – | – | 2
